Measurements from patent publication US10004701B2, “Methods and compositions for treating infection” (UNIVERSITY OF ROCHESTER, priority 2012, dated 2018).
Structures can show the parent of a compound that is named as a salt. Where two headings read alike, the source gives them in different places.

Key:
Test in all cases: AK assay 384-well format, Prestwick library screening
E. faecium = type: cell-based, Enterococcus faecium; details: 50 μM final drug concentration; for fold induction at 50 µM: Enterococcus faecium, 3 h
E. cloacae = type: cell-based, Enterobacter cloacae; details: 50 μM final drug concentration; for fold induction at 50 µM: Enterobacter cloacae, 3 h
E. coli = type: cell-based, Escherichia coli; details: 50 μM final drug concentration; for fold induction at 50 µM: Escherichia coli, 3 h
K. pneumoniae = type: cell-based, Klebsiella pneumoniae; details: 50 μM final drug concentration; for fold induction at 50 µM: Klebsiella pneumoniae, 3 h
[1] = tested on: A. baumannii strain 98-37-09; type: cell-based, Acinetobacter baumannii; details: 50 μM final drug concentration; for fold induction at 50 µM: Acinetobacter baumannii, 983709, 3 h
[2] = tested on: S. aureus strain USA300-0114; type: cell-based, Staphylococcus aureus; details: 50 μM final drug concentration; for fold induction at 50 µM: Staphylococcus aureus, USA300, 3 h
P. aeruginosa = type: cell-based, Pseudomonas aeruginosa; details: 50 μM final drug concentration; for fold induction at 50 µM: Pseudomonas aeruginosa, 3 h
[3] = planktonic, cutoff for positive-scoring molecules 3-fold increase, read-out: AK-based Prestwick Library Screening Results, E. faecium (fold increase in extracellular AK activity)
[4] = planktonic, cutoff for positive-scoring molecules 3-fold increase, read-out: AK-based Prestwick Library Screening Results, E. cloacae (fold increase in extracellular AK activity)
[5] = planktonic, cutoff for positive-scoring molecules 3-fold increase, read-out: AK-based Prestwick Library Screening Results, E. coli (fold increase in extracellular AK activity)
[6] = planktonic, cutoff for positive-scoring molecules 3-fold increase, read-out: AK-based Prestwick Library Screening Results, K. pneumoniae (fold increase in extracellular AK activity)
[7] = planktonic, cutoff for positive-scoring molecules 3-fold increase, read-out: AK-based Prestwick Library Screening Results, A. baumannii (fold increase in extracellular AK activity)
[8] = planktonic, cutoff for positive-scoring molecules 3-fold increase, read-out: AK-based Prestwick Library Screening Results, S. aureus (fold increase in extracellular AK activity)
[9] = planktonic, cutoff for positive-scoring molecules 3-fold increase, read-out: AK-based Prestwick Library Screening Results, P. aeruginosa (fold increase in extracellular AK activity)

Compound: CC1=C(/C=C/C(C)=C/C=C/C(C)=C/C(=O)O)C(C)(C)CCC1 [Retinoic acid]
- fold induction at 50 µM (E. faecium; 384-well format, cutoff for positive-scoring molecules 3-fold increase, read-out: AK-based Prestwick Library Screening Results, E. faecium (increase in extracellular AK activity)): 1
- fold induction at 50 µM (E. cloacae; 384-well format, cutoff for positive-scoring molecules 3-fold increase, read-out: AK-based Prestwick Library Screening Results, E. cloacae (increase in extracellular AK activity)): 0.9
- fold induction at 50 µM (E. coli; 384-well format, cutoff for positive-scoring molecules 3-fold increase, read-out: AK-based Prestwick Library Screening Results, E. coli (increase in extracellular AK activity)): 0.7
- fold induction at 50 µM (K. pneumoniae; 384-well format, cutoff for positive-scoring molecules 3-fold increase, read-out: AK-based Prestwick Library Screening Results, K. pneumoniae (increase in extracellular AK activity)): 0.6
- fold induction at 50 µM ([1]; 384-well format, cutoff for positive-scoring molecules 3-fold increase, read-out: AK-based Prestwick Library Screening Results, A. baumannii (increase in extracellular AK activity)): 0.8
- fold induction at 50 µM ([2]; 384-well format, cutoff for positive-scoring molecules 3-fold increase, read-out: AK-based Prestwick Library Screening Results, S. aureus (increase in extracellular AK activity)): 0.8
- fold induction at 50 µM (P. aeruginosa; 384-well format, cutoff for positive-scoring molecules 3-fold increase, read-out: AK-based Prestwick Library Screening Results, P. aeruginosa (increase in extracellular AK activity)): 0.7

Compound: C(#CCN1CCCC1)CN1CCCC1.Cl.Cl [Tremorine dihydrochloride]
- AK-based Prestwick Library Screening Results, E. faecium (increase in extracellular AK activity) (E. faecium; planktonic E. faecium, […]): 1.0
- AK-based Prestwick Library Screening Results, E. cloacae (increase in extracellular AK activity) (E. cloacae; planktonic E. cloacae, […]): 0.7
- AK-based Prestwick Library Screening Results, E. coli (increase in extracellular AK activity) (E. coli; planktonic E. coli, […]): 0.7
- AK-based Prestwick Library Screening Results, K. pneumoniae (increase in extracellular AK activity) (K. pneumoniae; planktonic K. pneumoniae, […]): 0.6
- AK-based Prestwick Library Screening Results, A. baumannii (increase in extracellular AK activity) ([1]; planktonic A. baumannii, […]): 0.7
- AK-based Prestwick Library Screening Results, S. aureus (increase in extracellular AK activity) ([2]; planktonic S. aureus, […]): 0.5
- AK-based Prestwick Library Screening Results, P. aeruginosa (increase in extracellular AK activity) (P. aeruginosa; planktonic P. aeruginosa, […]): 0.6

Compound: COc1ccc2c(c1)[C@]13CCCC[C@@H]1[C@H](C2)N(C)CC3
- fold induction at 50 µM (E. faecium; planktonic E. faecium, […], read-out: AK-based Prestwick Library Screening Results, E. faecium (increase in extracellular AK activity)): 0.9
- fold induction at 50 µM (E. cloacae; planktonic E. cloacae, […], read-out: AK-based Prestwick Library Screening Results, E. cloacae (increase in extracellular AK activity)): 1.1
- fold induction at 50 µM (E. coli; planktonic E. coli, […], read-out: AK-based Prestwick Library Screening Results, E. coli (increase in extracellular AK activity)): 0.8
- fold induction at 50 µM (K. pneumoniae; planktonic K. pneumoniae, […], read-out: AK-based Prestwick Library Screening Results, K. pneumoniae (increase in extracellular AK activity)): 0.7
- fold induction at 50 µM ([1]; planktonic A. baumannii, […], read-out: AK-based Prestwick Library Screening Results, A. baumannii (increase in extracellular AK activity)): 0.8
- fold induction at 50 µM ([2]; planktonic S. aureus, […], read-out: AK-based Prestwick Library Screening Results, S. aureus (increase in extracellular AK activity)): 0.7
- fold induction at 50 µM (P. aeruginosa; planktonic P. aeruginosa, […], read-out: AK-based Prestwick Library Screening Results, P. aeruginosa (increase in extracellular AK activity)): 0.8

Compound: CC(C(=O)O)c1ccc(-c2ccccc2)c(F)c1 (stereo not drawn) [Flurbiprofen]
- fold induction at 50 µM (E. faecium; [3]): 0.9
- fold induction at 50 µM (E. cloacae; [4]): 1.6
- fold induction at 50 µM (E. coli; [5]): 0.8
- fold induction at 50 µM (K. pneumoniae; [6]): 0.7
- fold induction at 50 µM [1, 7]: 0.9
- fold induction at 50 µM [2, 8]: 0.6
- fold induction at 50 µM (P. aeruginosa; [9]): 0.8

Compound: COc1cccc2c1C(=O)c1c(O)c3c(c(O)c1C2=O)C[C@@](O)(C(=O)CO)C[C@@H]3O[C@H]1C[C@H](N)[C@H](O)[C@H](C)O1 [Doxorubicin hydrochloride]
- fold induction at 50 µM (E. faecium; planktonic E. faecium, cutoff for positive-scoring molecules 3-fold increase, read-out: AK-based Prestwick Library Screening Results, E. faecium (increase in extracellular AK activity)): 1.7
- fold induction at 50 µM (E. cloacae; planktonic E. cloacae, cutoff for positive-scoring molecules 3-fold increase, read-out: AK-based Prestwick Library Screening Results, E. cloacae (increase in extracellular AK activity)): 1.2
- fold induction at 50 µM (E. coli; planktonic E. coli, cutoff for positive-scoring molecules 3-fold increase, read-out: AK-based Prestwick Library Screening Results, E. coli (increase in extracellular AK activity)): 1
- fold induction at 50 µM (K. pneumoniae; planktonic K. pneumoniae, cutoff for positive-scoring molecules 3-fold increase, read-out: AK-based Prestwick Library Screening Results, K. pneumoniae (increase in extracellular AK activity)): 0.7
- fold induction at 50 µM ([1]; planktonic A. baumannii, cutoff for positive-scoring molecules 3-fold increase, read-out: AK-based Prestwick Library Screening Results, A. baumannii (increase in extracellular AK activity)): 1
- fold induction at 50 µM ([2]; planktonic S. aureus, cutoff for positive-scoring molecules 3-fold increase, read-out: AK-based Prestwick Library Screening Results, S. aureus (increase in extracellular AK activity)): 0.9
- fold induction at 50 µM (P. aeruginosa; planktonic P. aeruginosa, cutoff for positive-scoring molecules 3-fold increase, read-out: AK-based Prestwick Library Screening Results, P. aeruginosa (increase in extracellular AK activity)): 0.6

Compound: Antimycin A
- AK-based Prestwick Library Screening Results: E. faecium (increase in extracellular AK activity) (E. faecium; planktonic E. faecium, 384-well, […]): 1.1
- AK-based Prestwick Library Screening Results: E. cloacae (increase in extracellular AK activity) (E. cloacae; planktonic E. cloacae, 384-well, […]): 1.3
- AK-based Prestwick Library Screening Results: E. coli (increase in extracellular AK activity) (E. coli; planktonic E. coli, 384-well, […]): 1.3
- AK-based Prestwick Library Screening Results: K. pneumoniae (increase in extracellular AK activity) (K. pneumoniae; planktonic K. pneumoniae, 384-well, […]): 1.0
- AK-based Prestwick Library Screening Results: A. baumannii (increase in extracellular AK activity) ([1]; planktonic A. baumannii, 384-well, […]): 1.4
- AK-based Prestwick Library Screening Results: S. aureus (increase in extracellular AK activity) ([2]; planktonic S. aureus, 384-well, […]): 1.0
- AK-based Prestwick Library Screening Results: P. aeruginosa (increase in extracellular AK activity) (P. aeruginosa; planktonic P. aeruginosa, 384-well, […]): 1.1

Compound: COc1ccc2c(c1O)-c1c(OC)c(OC)cc3c1[C@H](C2)N(C)CC3 [Isocorydine (+)]
- AK-based Prestwick Library Screening Results, E. faecium (increase in extracellular AK activity) (E. faecium; planktonic E. faecium, cutoff for positive-scoring molecules 3-fold increase): 0.9
- AK-based Prestwick Library Screening Results, E. cloacae (increase in extracellular AK activity) (E. cloacae; planktonic E. cloacae, cutoff for positive-scoring molecules 3-fold increase): 1.3
- AK-based Prestwick Library Screening Results, E. coli (increase in extracellular AK activity) (E. coli; planktonic E. coli, cutoff for positive-scoring molecules 3-fold increase): 0.9
- AK-based Prestwick Library Screening Results, K. pneumoniae (increase in extracellular AK activity) (K. pneumoniae; planktonic K. pneumoniae, cutoff for positive-scoring molecules 3-fold increase): 0.7
- AK-based Prestwick Library Screening Results, A. baumannii (increase in extracellular AK activity) ([1]; planktonic A. baumannii, cutoff for positive-scoring molecules 3-fold increase): 0.9
- AK-based Prestwick Library Screening Results, S. aureus (increase in extracellular AK activity) ([2]; planktonic S. aureus, cutoff for positive-scoring molecules 3-fold increase): 0.7
- AK-based Prestwick Library Screening Results, P. aeruginosa (increase in extracellular AK activity) (P. aeruginosa; planktonic P. aeruginosa, cutoff for positive-scoring molecules 3-fold increase): 0.8

Compound: CN1CCN(C2=Nc3ccccc3Oc3ccc(Cl)cc32)CC1 [Loxapine succinate]
- fold induction at 50 µM (E. faecium; planktonic E. faecium, 384-well, cutoff for positive-scoring molecules 3-fold increase, read-out: AK-based Prestwick Library Screening Results: E. faecium (increase in extracellular AK activity)): 0.9
- fold induction at 50 µM (E. cloacae; planktonic E. cloacae, 384-well, cutoff for positive-scoring molecules 3-fold increase, read-out: AK-based Prestwick Library Screening Results: E. cloacae (increase in extracellular AK activity)): 1.3
- fold induction at 50 µM (E. coli; planktonic E. coli, 384-well, cutoff for positive-scoring molecules 3-fold increase, read-out: AK-based Prestwick Library Screening Results: E. coli (increase in extracellular AK activity)): 1
- fold induction at 50 µM (K. pneumoniae; planktonic K. pneumoniae, 384-well, cutoff for positive-scoring molecules 3-fold increase, read-out: AK-based Prestwick Library Screening Results: K. pneumoniae (increase in extracellular AK activity)): 1
- fold induction at 50 µM ([1]; planktonic A. baumannii, 384-well, cutoff for positive-scoring molecules 3-fold increase, read-out: AK-based Prestwick Library Screening Results: A. baumannii (increase in extracellular AK activity)): 1
- fold induction at 50 µM ([2]; planktonic S. aureus, 384-well, cutoff for positive-scoring molecules 3-fold increase, read-out: AK-based Prestwick Library Screening Results: S. aureus (increase in extracellular AK activity)): 1.1
- fold induction at 50 µM (P. aeruginosa; planktonic P. aeruginosa, 384-well, cutoff for positive-scoring molecules 3-fold increase, read-out: AK-based Prestwick Library Screening Results: P. aeruginosa (increase in extracellular AK activity)): 0.9

Compound: NC(=O)c1cc[n+](CC2=C(C(=O)O)N3C(=O)[C@@H](NC(=O)[C@@H](c4ccccc4)S(=O)(=O)[O-])[C@H]3SC2)cc1 [Cefsulodin sodium salt]
- fold induction at 50 µM (E. faecium; [3]): 0.9
- fold induction at 50 µM (E. cloacae; [4]): 0.9
- fold induction at 50 µM (E. coli; [5]): 0.9
- fold induction at 50 µM (K. pneumoniae; [6]): 0.7
- fold induction at 50 µM [1, 7]: 1.1
- fold induction at 50 µM [2, 8]: 1
- fold induction at 50 µM (P. aeruginosa; [9]): 8.6
